Measured values published in patent US8563580B2, “Flavivirus inhibitors and methods for their use” (Georgetown University, priority 2008, dated 2013).

Tested on: WNV protease
Assay: High Throughput Screen (HTS) protease assay
Format: biochemical, West Nile virus (EG101 strain)
Conditions: 100 nl of 5 mg/ml compound in DMSO per 30.1 μl well; substrate Boc-Gly-Lys-Arg-AMC 50 μM; DMSO controls = 100% activity
Experimental: Procedures for expression and purification of WNV (EG101 strain) were similar to those described elsewhere by Mueller et al., Int. J. Biochem. Cell. Biol., 39: 606-14 (2007). Briefly, E. coli Top10 F′ cells (Invitrogen, Carlsbad, Calif.) were transformed with the protease expression plasmid. Cells were grown at 37° C. until the OD600 was ˜0.5. Cells were then induced with isopropyl-1-thio-β-D-galactopyranoside (American Bioanalytical, Natick, Mass.) (0.5 mM), and incubated for 4 h at 37° C. Cells were harvested by centrifugation (5000×g) for 15 min at 4° C., washed once with a buffer containing 50 mM Tris-HCl, pH 7.5, and 200 mM NaCl, centrifuged at 5000×g for 15 min at 4° C., and stored at -80° C. until used.
Proteases were purified by suspending bacterial pellets in 50 mM Hepes, pH 7.0, 500 mM NaCl, (buffer A) with 0.05 mg/ml lysozyme. Cells were incubated for 30 min on ice after addition of 10% stock solution of Triton X-100 (final concentration of 0.5%). Cells were disrupted by sonication for 2 min and the soluble fraction was collected after centrifugation (15,000×g) for 30 min at 4° C. The soluble fraction was incubated for 1 h at 4° C. with Talon resin (BD Bioscience, San Jose, Calif.) which was pre-equilibrated in buffer A. The affinity resin was centrifuged at (400×g) for 10 min at 4° C., washed three times with buffer A, and packed into a column. Washing of the column was continued with the buffer A containing 10 mM imidazole, followed by elution of the protease with buffer A containing 150 mM imidazole. The protease was concentrated and further purified by Sephadex G-75 gel filtration chromatography. The purified protease fractions were pooled and dialyzed against a buffer containing 50 mM Tris-HCl pH 7.5 and 300 mM NaCl (4×1 L). Aliquots (100 μl) were frozen at −80° C.
The protease assay (100 μl) described by Mueller et al., Int. J. Biochem. Cell. Biol. 39: 606-14 (2007) was adapted for a 384-well plate format (30.1 μl). Microtiter plates were loaded sequentially with 14 μl of the reaction buffer containing 200 mM Tris-HCl, pH 9.5, and 30% glycerol (TG buffer) using an automated Wellmate (Matrix, Hudson, N.H.) and 6 μl of WNV protease (0.05 μM) (as prepared above) in TG buffer containing 15 mM NaCl (3 mM final concentration). Plates were then centrifuged at 1000×g for 3 min at room temperature to mix samples and pool liquids at the bottom of the wells. Inhibitor compounds (100 nl of 5 mg/ml in dimethyl sulfoxide; DMSO) were added to each well in duplicate by a pin-transfer mechanism of a robotic delivery system. The final inhibitor concentrations in the assays varied due to different molecular weights of the compounds from the libraries that were screened. Plates were incubated at room temperature to allow for formation of protease/inhibitor complexes. The fluorogenic substrate, t-butyl-oxycarbonyl(Boc)-Gly-Lys-Arg-7-amino-4-methyl coumarin (AMC) (10 μl in TG buffer; 50 μM final concentration in the reaction mixture), was added using the Wellmate, and the plates were centrifuged for 3 min at 1000×g and incubated at room temperature for 15 min. Fluorescence was measured at excitation and emission wavelengths of 385 nm and 465 nm, respectively, on a Perkin-Elmer (Waltham, Mass.) spectrofluorometer. To validate the assay conditions, aprotinin (bovine pancreatic trypsin inhibitor, BPTI) was used as a positive control. Assay mixtures containing DMSO were used as negative controls. The average of fluorescence values in duplicate wells for a given compound was used to determine the percent activity by taking the values obtained with DMSO controls as 100%. Compounds 1-11, 18-32, and 37-101 above were identified. […] Compounds 12-17 are compounds related to those identified in the HTS screen that also show significant WNV protease inhibition, i.e., >95%.

Row | Compound | % Inhibition (reduction in protease activity) [%]
1 | Cc1ccnc(NC(c2ccccc2O)c2ccc3cccnc3c2O)c1 (stereo not shown) [Compound 12] | >95
2 | C=CCn1c(Cc2ccccc2)nc2c(cnn2-c2ccccc2)c1=O [Compound 52] | 52
3 | O=C(CCCN1C(=O)/C(=C/C=C/c2ccccc2)SC1=S)Nc1ccccn1 [Compound 21] | 74
4 | Oc1c(C(c2ccc(Cl)cc2)N2CCOCC2)cc(Cl)c2cccnc12 (stereo not shown) [Compound 11] | 65
5 | O=C(Nc1ccc(Cl)cc1)Oc1ccccc1N1CCSCC1 [Compound 82] | 55
6 | O=C(Nc1nc(SCc2ccc(F)cc2)ns1)c1cccs1 [Compound 99] | 50
7 | O=c1[nH]c2ccccc2c(O)c1-c1nc2ccccc2s1 [Compound 48] | 67
8 | COc1ccc(NC(=O)c2c(N)sc(-c3ccccc3)c2C)cc1 [Compound 63] | 65
9 | O=C(CSc1oc(-c2cccs2)nc1S(=O)(=O)c1ccccc1)NC1CCCCC1 [Compound 95] | 52
10 | O=C(CCCN1C(=O)/C(=C/C=C/c2ccccc2)SC1=S)Nc1cccc(F)c1 [Compound 27] | 66
11 | O=C1C(c2ccccc2)c2ccccc2N1Cc1ccccc1 (stereo not shown) [Compound 43] | 54
12 | Cc1ccc(NC(=O)c2cc(-c3ccc(O)cc3)on2)cc1 [Compound 85] | 54
13 | COC(=O)c1ccc2c(c1)N(Cc1nc(-c3ccccc3C)oc1C)C(=O)C1CCCN21 (stereo not shown) [Compound 49] | 58
14 | CC1=NC(NC(=O)CCN2C(=O)/C(=C/C(C)=C/c3ccccc3)SC2=S)[SH]=C1 (stereo not shown) [Compound 24] | 70
15 | O=C1N=c2ccc(S(=O)(=O)N(CCc3ccccc3)Cc3ccccc3)cc2=NC1=O [Compound 50] | 55
16 | CCc1ccc(-c2cc(C(=O)Nc3ccc(S(=O)(=O)NC(C)=O)cc3)c3ccccc3n2)cc1 [Compound 87] | 54
17 | COc1ccc(C(NC(=O)c2ccccc2)c2ccc3cccnc3c2O)cc1 (stereo not shown) [Compound 1] | 86
18 | Cc1ccc(CNC(=O)Cc2ccc(-n3cccc3)cc2)cc1 [Compound 77] | 56
19 | Cc1ccc2ccc(C(Nc3ccccn3)c3ccc4c(c3)OCO4)c(O)c2n1 (stereo not shown) [Compound 4] | 83
20 | CC(/C=C1\SC(=S)N(CC(=O)Nc2cccnc2)C1=O)=C\c1ccccc1 [Compound 22] | 72.5

Row | Compound | % Inhibition (reduction in protease activity) [%]
21 | Cn1c(=O)n(CCOc2ccc(Cl)cc2)c2ccccc21 [Compound 41] | 56
22 | O=C1Nc2ccccc2/C1=C/c1ccccc1N1CCOCC1 [Compound 44] | 52
23 | Oc1c(C(Nc2nccs2)c2ccc(F)cc2)ccc2cccnc12 (stereo not shown) [Compound 9] | 74
24 | CCOC(=O)c1ccc(NC(=O)Cn2ncc3c4ccccc4n(Cc4ccccc4)c3c2=O)cc1 [Compound 59] | 53
25 | Cc1ccc(-c2csc(-n3sc4ccccc4c3=O)n2)cc1 [Compound 45] | 52
26 | O=C1c2ccccc2C(O)(Cc2ccccc2)N1c1ccc2c(c1)OCO2 (stereo not shown) [Compound 42] | 54
27 | O=C(/C=C/c1ccccc1)Nc1c2c(nn1-c1ccccc1)CSC2 [Compound 74] | 57
28 | Cc1ccc(NC(=O)C23C(=O)Oc4ccccc4C2C3(C)C(=O)c2ccccc2)cc1 (stereo not shown) [Compound 68] | 61
29 | COc1ccc(Cc2c(O)nc(SC)n(-c3ccccc3)c2=O)cc1 [Compound 55] | 51
30 | O=C(CCc1ccccc1)Nc1nnc(SCc2ccc(F)cc2)s1 [Compound 69] | 61
31 | Oc1c(C(Nc2nccs2)c2ccccc2)ccc2cccnc12 (stereo not shown) [Compound 14] | >95
32 | COC(=O)/C=C1\S/C(=N/c2ccc(Cl)cc2)N(c2ccc(Cl)cc2)C1=O [Compound 32] | 59
33 | CCOc1cc2c(cc1OCC)C1C(C(=O)NCCCN3CCN(C)CC3)c3ccccc3C(=O)N1CC2 (stereo not shown) [Compound 61] | 51
34 | O=C(CCC(=O)c1ccc(Cl)cc1)Nc1c(F)cccc1F [Compound 71] | 59
35 | Cc1ccc(NC(=O)c2cnn(-c3ccccc3)c2NC(=O)c2ccco2)cc1 [Compound 73] | 58
36 | CC(Oc1cc(Cl)ccc1Cl)C(=O)N1CCc2ccccc21 (stereo not shown) [Compound 38] | 58
37 | O=C(NCc1csc2ccccc12)c1cc(F)cc2c1OCOC2 [Compound 89] | 53
38 | O=C(c1cc(Br)cc2c1OCC2)N1CCOCC1 [Compound 75] | 57
39 | O=C(Nc1ccc(F)cc1F)c1ccc2c(c1)C(=O)N(Cc1ccco1)C2=O [Compound 58] | 55
40 | O=C(COc1cccc2ccccc12)N1CCc2ccccc2C1 [Compound 47] | 83

Row | Compound | % Inhibition (reduction in protease activity) [%]
41 | COc1ccc(Cl)cc1NC(=O)c1cc(-c2ccco2)on1 [Compound 70] | 60
42 | O=C(CC1Sc2ncnn2C1=O)Nc1ccc(Br)cc1 (stereo not shown) [Compound 57] | 58
43 | Clc1ccc(CN2COc3c(cc(Cl)c4cccnc34)C2)cc1 [Compound 37] | 71
44 | O=C1NC(=S)S/C1=C\c1ccc(-c2cccc(C(F)(F)F)c2)o1 [Compound 30] | 53
45 | CC(C)N1C(=O)/C(=C2/C(=O)N(CC(=O)O)c3ccc(Br)cc32)SC1=S [Compound 31] | 53
46 | Cc1cccc(NC(c2ccccc2OCc2ccccc2)c2ccc3cccnc3c2O)n1 (stereo not shown) [Compound 15] | >95
47 | CCn1c2ccccc2c2nnc(SCC(=O)Nc3ccc(S(N)(=O)=O)cc3)nc21 [Compound 86] | 54
48 | O=C1/C(=C/C2C=CC=[SH]2)SC(=S)N1CC(=O)N(Cc1ccccc1)c1ccccc1 (stereo not shown) [Compound 26] | 67
49 | C=CCn1c(SCc2ccc(C(=O)OC)cc2)nc2ccccc2c1=O [Compound 56] | 51
50 | CCN(CC)S(=O)(=O)c1ccc2oc(C(=O)Nc3cccc(OC)c3)c(C)c2c1 [Compound 64] | 65
51 | Nc1sc2c(c1C(=O)NCCc1ccccc1)CCC2 [Compound 72] | 59
52 | COc1cccc(CNC(=O)c2[nH]c(C)c(C(=O)NC3CCCCC3)c2C)c1 [Compound 93] | 52
53 | CCOC(=O)c1c(CC(C)C)csc1NC(=O)Cc1ccccc1 [Compound 83] | 54
54 | Cc1ccc(-n2nc3c(c2NC(=O)CCC2CCCC2)CSC3)cc1 [Compound 101] | 50
55 | Cc1cccc(N2C(=O)/C(=C/c3ccc(O)c(O)c3)SC2=S)c1C [Compound 29] | 58
56 | Cc1cc(NC(=O)CSc2ccccn2)no1 [Compound 88] | 54
57 | O=C(c1conc1-c1ccccc1)n1cccc1 [Compound 40] | 56
58 | CC(/C=C1\SC(=S)N(CCC(=O)Nc2ccccc2O)C1=O)=C\c1ccccc1 [Compound 25] | 67
